PubChem BioAssay AID1259407 (Chemical Carcinogenesis Research Information System (CCRIS), 2018)
The source made the active and inactive calls. No rule for the calls is given here.

Tested on: CCRIS mutagenicity, Ames/micronucleus/aberration tests
Assay: CCRIS mutagenicity studies
[1] = Test System: AMES SALMONELLA TYPHIMURIUM, Strain/Indicator: TA98, Metabolic Activation: HAMSTER, LIVER, S-9, AROCLOR 1254 (30%), Method: PREINCUBATION
[2] = Test System: AMES SALMONELLA TYPHIMURIUM, Strain/Indicator: TA98, Metabolic Activation: NONE, Method: PREINCUBATION
[3] = Test System: AMES SALMONELLA TYPHIMURIUM, Strain/Indicator: TA100, Metabolic Activation: HAMSTER, LIVER, S-9, AROCLOR 1254 (30%), Method: PREINCUBATION
[4] = Test System: AMES SALMONELLA TYPHIMURIUM, Strain/Indicator: TA100, Metabolic Activation: NONE, Method: PREINCUBATION
[5] = Test System: AMES SALMONELLA TYPHIMURIUM, Strain/Indicator: TA100, Metabolic Activation: RAT, LIVER, S-9, AROCLOR 1254 (30%), Method: PREINCUBATION
[6] = Test System: AMES SALMONELLA TYPHIMURIUM, Strain/Indicator: TA98, Metabolic Activation: NONE, Method: STANDARD PLATE
[7] = Test System: AMES SALMONELLA TYPHIMURIUM, Strain/Indicator: TA100, Metabolic Activation: NONE, Method: STANDARD PLATE

## COc1ccc(OC)c(N=Nc2c(O)ccc3ccccc23)c1
[1]
  mutagenic call: active; positive
[2]
  mutagenic call: inactive; negative
[3]
  mutagenic call: active; positive
[4]
  mutagenic call: inactive; negative
[5]
  mutagenic call: active; positive

## C=C(Cl)Cl
End Point: IN VITRO CHROMOSOMAL ABERRATIONS, Test System: CHINESE HAMSTER LUNG (CHL), Metabolic Activation: NONE
  mutagenic call: inactive; negative
End Point: IN VITRO CHROMOSOMAL ABERRATIONS, Test System: CHINESE HAMSTER LUNG (CHL), Metabolic Activation: RAT. LIVER, S-9, KC-400
  mutagenic call: active; positive
End Point: IN VIVO MICRONUCLEUS, Test System: BONE MARROW POLYCHROMATIC ERYTHROCYTES, Species: MOUSE, Strain/Sex: DDY/MALE, Route: GAVAGE (ORAL) ONCE
  mutagenic call: inactive; negative
End Point: IN VIVO MICRONUCLEUS, Test System: BONE MARROW POLYCHROMATIC ERYTHROCYTES, Species: MOUSE, Strain/Sex: DDY/MALE, Route: GAVAGE (ORAL), 4 DOSES AT 24 HR INTERVALS
  mutagenic call: inactive; negative
End Point: IN VIVO MICRONUCLEUS, Test System: MICRONUCLEATED POLYCHROMATIC ERYTHROCYTES, Species: MOUSE, Strain/Sex: ICR/FEMALE (PREGNANT), Route: IP INJECTION ON 18 D OF GESTATION
  mutagenic call: inactive; negative
Test System: AMES SALMONELLA TYPHIMURIUM, Strain/Indicator: RSJ100, Metabolic Activation: NONE, Method: VAPOR PHASE
  mutagenic call: inactive; negative
Test System: AMES SALMONELLA TYPHIMURIUM, Strain/Indicator: TA97, Metabolic Activation: NONE, Method: STANDARD PLATE
  mutagenic call: inactive; negative
Test System: AMES SALMONELLA TYPHIMURIUM, Strain/Indicator: TA97, Metabolic Activation: RAT, LIVER, S-9, AROCLOR 1254, Method: STANDARD PLATE
  mutagenic call: active; positive
[6]
  mutagenic call: inactive; negative
Test System: AMES SALMONELLA TYPHIMURIUM, Strain/Indicator: TA98, Metabolic Activation: RAT, LIVER, S-9, AROCLOR 1254, Method: STANDARD PLATE
  mutagenic call: active; positive
Test System: AMES SALMONELLA TYPHIMURIUM, Strain/Indicator: TA98, Metabolic Activation: RAT, LIVER, S-9, PCB, Method: GAS EXPOSURE
  mutagenic call: inactive; negative
Test System: AMES SALMONELLA TYPHIMURIUM, Strain/Indicator: TA100, Metabolic Activation: MOUSE, LIVER, S-9, PHENOBARBITAL, Method: DESICCATOR
  mutagenic call: active; positive
[7]
  mutagenic call: active; positive
Test System: AMES SALMONELLA TYPHIMURIUM, Strain/Indicator: TA100, Metabolic Activation: RAT, LIVER, S-9, AROCLOR 1254, Method: DESICCATOR
  mutagenic call: active; positive
Test System: AMES SALMONELLA TYPHIMURIUM, Strain/Indicator: TA100, Metabolic Activation: RAT, LIVER, S-9, AROCLOR 1254, Method: STANDARD PLATE
  mutagenic call: active; positive
Test System: AMES SALMONELLA TYPHIMURIUM, Strain/Indicator: TA100, Metabolic Activation: RAT, LIVER, S-9, PCB, Method: GAS EXPOSURE
  mutagenic call: active; positive
Test System: AMES SALMONELLA TYPHIMURIUM, Strain/Indicator: TA100, Metabolic Activation: RAT, LIVER, S-9, PHENOBARBITAL, Method: DESICCATOR
  mutagenic call: active; positive
Test System: AMES SALMONELLA TYPHIMURIUM, Strain/Indicator: TA104, Metabolic Activation: NONE, Method: STANDARD PLATE
  mutagenic call: inactive; negative
Test System: AMES SALMONELLA TYPHIMURIUM, Strain/Indicator: TA104, Metabolic Activation: RAT, LIVER, S-9, AROCLOR 1254, Method: STANDARD PLATE
  mutagenic call: inactive; negative
Test System: AMES SALMONELLA TYPHIMURIUM, Strain/Indicator: TA1530, Metabolic Activation: MOUSE, LIVER, S-9, PHENOBARBITAL, Method: DESICCATOR
  mutagenic call: active; positive
Test System: AMES SALMONELLA TYPHIMURIUM, Strain/Indicator: TA1535, Metabolic Activation: HAMSTER, LIVER, S-9, AROCLOR 1254, Method: DESICCATOR
  mutagenic call: active; positive
Test System: AMES SALMONELLA TYPHIMURIUM, Strain/Indicator: TA1535, Metabolic Activation: MOUSE, KIDNEY, S-9, Method: DESICCATOR
  mutagenic call: active; positive
Test System: AMES SALMONELLA TYPHIMURIUM, Strain/Indicator: TA1535, Metabolic Activation: MOUSE, LIVER, S-9, AROCLOR 1254, Method: DESICCATOR
  mutagenic call: active; positive
Test System: AMES SALMONELLA TYPHIMURIUM, Strain/Indicator: TA1535, Metabolic Activation: RAT, LIVER, S-9, AROCLOR 1254, Method: DESICCATOR
  mutagenic call: active; positive
Test System: AMES SALMONELLA TYPHIMURIUM, Strain/Indicator: TA1535, Metabolic Activation: RAT, LIVER, S-9, PCB, Method: GAS EXPOSURE
  mutagenic call: active; positive
Test System: AMES SALMONELLA TYPHIMURIUM, Strain/Indicator: TA1535, Metabolic Activation: RAT, LIVER, S-9, PHENOBARBITAL, Method: DESICCATOR
  mutagenic call: active; positive
Test System: AMES SALMONELLA TYPHIMURIUM, Strain/Indicator: TA1537, Metabolic Activation: RAT, LIVER, S-9, PCB, Method: GAS EXPOSURE
  mutagenic call: inactive; negative
Test System: AMES SALMONELLA TYPHIMURIUM, Strain/Indicator: TA1538, Metabolic Activation: RAT, LIVER, S-9, PCB, Method: GAS EXPOSURE
  mutagenic call: inactive; negative
Test System: AMES SALMONELLA TYPHIMURIUM, Strain/Indicator: TA2637, Metabolic Activation: RAT, LIVER, S-9, PCB, Method: GAS EXPOSURE
  mutagenic call: inactive; negative
Test System: AMES SALMONELLA TYPHIMURIUM, Strain/Indicator: TPT100, Metabolic Activation: NONE, Method: VAPOR PHASE
  mutagenic call: active; positive
Test System: E. COLI, Strain/Indicator: WP2 UVRA (PKM101), Metabolic Activation: RAT, LIVER, S-9, PCB, Method: GAS EXPOSURE
  mutagenic call: active; positive
Test System: E. COLI, Strain/Indicator: WP2 UVRA, Metabolic Activation: RAT, LIVER, S-9, PCB, Method: GAS EXPOSURE
  mutagenic call: active; positive
Test System: MOUSE LYMPHOMA, Strain/Indicator: L5178Y (TK+/TK-), Metabolic Activation: NONE, Method: SUSPENSION/PLATE
  mutagenic call: inactive; negative
Test System: MOUSE LYMPHOMA, Strain/Indicator: L5178Y (TK+/TK-), Metabolic Activation: RAT, LIVER, S-9, Method: SUSPENSION/PLATE
  mutagenic call: active; positive

## OC[C@@H](O)[C@@H](O)[C@H](O)[C@@H](O)CO
End Point: IN VITRO CHROMOSOMAL ABERRATIONS, Test System: CHO-WBL CELLS, Metabolic Activation: NONE
  mutagenic call: active; positive (structural changes); osmolality of solution decisive factor
Test System: AMES SALMONELLA TYPHIMURIUM, Strain/Indicator: TA97A, Metabolic Activation: NONE, Method: PREINCUBATION
  mutagenic call: inactive; negative
Test System: AMES SALMONELLA TYPHIMURIUM, Strain/Indicator: TA97A, Metabolic Activation: RAT, LIVER, S-9, AROCLOR 1254, Method: PREINCUBATION
  mutagenic call: inactive; negative
Test System: AMES SALMONELLA TYPHIMURIUM, Strain/Indicator: TA102, Metabolic Activation: NONE, Method: PREINCUBATION
  mutagenic call: inactive; negative
Test System: AMES SALMONELLA TYPHIMURIUM, Strain/Indicator: TA102, Metabolic Activation: RAT, LIVER, S-9, AROCLOR 1254, Method: PREINCUBATION
  mutagenic call: inactive; negative

## O=[N+]([O-])c1c2ccccc2cc2ccccc12
[1]
  mutagenic call: active; positive
[2]
  mutagenic call: active; positive
[6]
  mutagenic call: active; positive
Test System: AMES SALMONELLA TYPHIMURIUM, Strain/Indicator: TA98, Metabolic Activation: RAT, LIVER, S-9, AROCLOR 1254 (10%), Method: PREINCUBATION
  mutagenic call: active; positive
Test System: AMES SALMONELLA TYPHIMURIUM, Strain/Indicator: TA98, Metabolic Activation: RAT, LIVER, S-9, AROCLOR 1254 (30%), Method: PREINCUBATION
  mutagenic call: active; positive
Test System: AMES SALMONELLA TYPHIMURIUM, Strain/Indicator: TA98, Metabolic Activation: RAT, LIVER, S-9, Method: STANDARD PLATE
  mutagenic call: active; positive
[3]
  mutagenic call: active; positive
[4]
  mutagenic call: active; positive
[7]
  mutagenic call: inactive; negative
Test System: AMES SALMONELLA TYPHIMURIUM, Strain/Indicator: TA100, Metabolic Activation: RAT, LIVER, S-9, AROCLOR 1254 (10%), Method: PREINCUBATION
  mutagenic call: active; positive
[5]
  mutagenic call: active; positive
Test System: AMES SALMONELLA TYPHIMURIUM, Strain/Indicator: TA100, Metabolic Activation: RAT, LIVER, S-9, Method: STANDARD PLATE
  mutagenic call: inactive; negative

## Cc1cccc(N=O)c1
Test System: AMES SALMONELLA TYPHIMURIUM, Strain/Indicator: TA98, Metabolic Activation: RAT, LIVER, S-9, AROCLOR 1254, Method: PREINCUBATION
  mutagenic call: inactive; negative

## ClCc1cc2c3ccccc3cc3ccc4cccc1c4c32
[6]
  mutagenic call: active; positive
[7]
  mutagenic call: active; positive
